SMILES strings stand for the structures.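 Step 1: Grow cells in 96-well plates. Step 2: Expose to compound for 48 hours at 5 concentrations. Step 3: Interpolate endpoints linearly; if unreached, use highest concentration. At the GI50, growth is halved.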 Active and inactive are the calls of the source. Rule as the data show it: active = GI50 up to about 1.1 µM and inactive = higher.

The text below walks through data of ChEMBL document CHEMBL1201862, “PubChem BioAssay data set” (2004).

Holding throughout (experiment): growth of human tumour cells (NCI), 48 h
The test system of assay [1] is A549.
In assay [2] the test system is CCRF-CEM.
The subject of assay [3] is HCC 2998.
Assay [4] concerns HL-60.
In assay [5] the test system is HT-29.
Assay [6] deals with LOX IMVI.
Assay [7] has as its system MCF7.
The test system of assay [8] is MDA-MB-231.
In assay [9] the test system is MDA-MB-435.
The subject of assay [10] is MOLT-4.
For assay [11], the system named is NCI-H226.
For assay [12], the system named is NCI-H460.
The subject of assay [13] is NCI/ADR-RES.
Assay [14] has as its system OVCAR-5.
In assay [15] the test system is SK-MEL-28.
The subject of assay [16] is SK-MEL-5.
Assay [17] concerns SNB-19.
Assay [18] has as its system TK-10.
Assay [19] concerns UO-31.
Assay [20] deals with Malme-3M.

Consider `C=C[C@H]1CN2CCc3c([nH]c4c([C@@H]5CCCN5C)c(O)ccc34)[C@@H]2C[C@@H]1C[C@H]1c2[nH]c3ccccc3c2CCN1C`, for which the GI50 in assay [1] is 0.764 µM (active); in assay [2], 0.188 µM (active); in assay [3] it was 0.177 µM (active); in assay [4] it was 0.409 µM (active); in [5] it was 1.4 µM (inactive); in assay [6], 0.179 µM (active). Also, the GI50 was 1.75 µM (inactive) in [7]; 1.63 µM (inactive) in assay [8]; 1.48 µM (inactive) in assay [9]; 0.316 µM (active) in assay [10]; 1.67 µM (inactive) in [11]; 1.49 µM (inactive) in assay [12]. Further, the GI50 in [13] is 1.61 µM (inactive); in assay [14], 1.85 µM (inactive); in assay [15], 1.55 µM (inactive); in assay [16], 1.66 µM (inactive); in [17], 1.3 µM (inactive); in [18], 1.59 µM (inactive). Also, the GI50 in assay [19] is 1.08 µM (active).
Regarding `O=S(=O)(OI(O)CC(F)(F)F)C(F)(F)F`, the GI50 in assay [1], in assay [2], in assay [3], in assay [4], in assay [5] and in assay [6] was > 100 µM (inactive) throughout. The GI50 in [7], in assay [8], in [9], in [10], in assay [11] and in [12] was > 100 µM (inactive) each time. The GI50 in assay [13], in assay [14], in assay [15], in assay [16], in assay [18] and in assay [19] was > 100 µM (inactive) throughout.
With `CC(=O)c1cc(I)c(O)c2ncccc12`, the GI50 is 4.34 µM (inactive) in assay [1]; 2.07 µM (inactive) in assay [2]; 8.17 µM (inactive) in assay [3]; 2.03 µM (inactive) in assay [4]; 4.42 µM (inactive) in assay [5]; 3.85 µM (inactive) in assay [6]. The GI50 in assay [7] is 4.73 µM (inactive); in assay [8], 2.55 µM (inactive); in assay [9], 4.09 µM (inactive); in [10] it was 2.42 µM (inactive); in assay [20] it was 3.45 µM (inactive); in assay [11], 2.33 µM (inactive). The GI50 in assay [12] was 4.06 µM (inactive); in assay [13], 4.35 µM (inactive); in assay [14], > 10 µM (inactive); in [15], 4.09 µM (inactive); in assay [16], 2.29 µM (inactive); in assay [17], 5.47 µM (inactive). Besides, the GI50 in assay [18] is 9.46 µM (inactive).
With `CCC(=O)ONC(=O)Cn1ccc([N+](=O)[O-])n1`, the GI50 in assay [1], in [2], in assay [3], in assay [4], in assay [5] and in assay [6] was > 100 µM (inactive) each time. The GI50 in [7], in assay [8], in assay [9], in assay [10], in assay [20] and in assay [11] was > 100 µM (inactive) in each case. Moreover, the GI50 in assay [13], in [14], in assay [15], in assay [16], in assay [17] and in assay [18] was > 100 µM (inactive) each time. Further, in assay [19], the GI50 was > 100 µM (inactive).
With `NC(=O)CC(/N=C1\C(=O)OC(C(O)CO)\C1=N/C(CC(N)=O)C(=O)O)C(=O)O` (centres undefined), the GI50 in assay [1], in assay [2], in [3], in [4], in [5] and in assay [7] was > 100 µM (inactive) each time. Besides, the GI50 in assay [8], in assay [9], in [10], in assay [20], in [11] and in assay [12] was > 100 µM (inactive) each time. Moreover, the GI50 in assay [13] was > 100 µM (inactive); in assay [14], > 10 µM (inactive); in [15] it was > 100 µM (inactive); in assay [16], > 100 µM (inactive); in assay [17], > 100 µM (inactive); in assay [18], > 100 µM (inactive). In addition, the GI50 in assay [19] was > 100 µM (inactive).
For `O=C1NC(=O)/C(=C/c2ccc(S(=O)(=O)N/N=C/c3ccccc3)cc2)N1`, the GI50 in assay [1], in assay [2], in assay [3], in assay [4], in assay [5] and in assay [6] was > 100 µM (inactive) throughout. The GI50 in assay [7], in [8], in [9], in assay [10], in [20] and in assay [11] was > 100 µM (inactive) in each case. Besides, the GI50 in [13], in assay [14], in [15], in assay [16], in assay [17] and in assay [18] was > 100 µM (inactive) each time. The GI50 in assay [19] is > 100 µM (inactive).
Take `O=C(Cc1csc2[n+]1C(=O)/C(=C/c1ccc(Cl)cc1)S2)Nc1ccccc1`: the GI50 in assay [1] was 24.1 µM (inactive); in assay [2] it was 23.8 µM (inactive); in assay [3] it was 19.6 µM (inactive); in [4], 20.2 µM (inactive); in [5], 24.2 µM (inactive); in [6] it was 16.2 µM (inactive). Besides, the GI50 in [7] was 15.4 µM (inactive); in [8] it was 14.8 µM (inactive); in [9] it was 25.3 µM (inactive); in [20], 30.1 µM (inactive); in assay [11] it was 15.6 µM (inactive); in [12], 18.7 µM (inactive). The GI50 is 21.7 µM (inactive) in assay [13]; 22.5 µM (inactive) in assay [14]; 30.4 µM (inactive) in assay [15]; 10.9 µM (inactive) in assay [16]; 34.9 µM (inactive) in assay [17]; 31.6 µM (inactive) in assay [18]. In addition, the GI50 in [19] is 21.9 µM (inactive).
On to `O=C(O)C1C(Br)(c2ccccc2)C1(Br)c1ccccc1` (centres undefined), for which the GI50 in assay [1] was 39 µM (inactive); in [3], 22.6 µM (inactive); in [4], 12.4 µM (inactive); in [5], 20.7 µM (inactive); in [6], 22.2 µM (inactive); in assay [7] it was 22 µM (inactive). In addition, the GI50 in assay [8] was 39.7 µM (inactive); in [9], 41.2 µM (inactive); in assay [10], 15.2 µM (inactive); in assay [20], 35.6 µM (inactive); in [11], 27.2 µM (inactive); in [12] it was 14.2 µM (inactive). In addition, the GI50 was 52.4 µM (inactive) in assay [13]; 58.9 µM (inactive) in [14]; 21.5 µM (inactive) in assay [15]; 28.8 µM (inactive) in assay [16]; 27.4 µM (inactive) in assay [17]; 33.7 µM (inactive) in [18]. For the same compound, the GI50 in assay [19] is 16.2 µM (inactive).
As to `CC(C)=CCC/C(C)=C/CC/C(C)=C/CC/C(=C/CC/C(C)=C\CC/C(C)=C/CC/C(C)=C/CC/C(C)=C/Cc1cc(O)ccc1O)CO`, the GI50 in assay [1] is 4.14 µM (inactive); in assay [2], 3.56 µM (inactive); in assay [3], 9.93 µM (inactive); in assay [4], 3.15 µM (inactive); in assay [5], 4.52 µM (inactive); in [6], 2.94 µM (inactive). In addition, the GI50 in [7] was 2.55 µM (inactive); in assay [8] it was 27.3 µM (inactive); in assay [9], 1.12 µM (active); in assay [20], 2.7 µM (inactive); in assay [11], 2.29 µM (inactive); in assay [12] it was 9.57 µM (inactive). Further, the GI50 in assay [13] is 4.51 µM (inactive); in [14] it was 25.4 µM (inactive); in assay [15], 2.29 µM (inactive); in assay [16], 2.48 µM (inactive); in assay [17], 7.1 µM (inactive); in assay [18] it was 6.61 µM (inactive). The GI50 in [19] is 7.98 µM (inactive).
Consider `C[C@H](Nc1nc(N)c(N=O)c(=O)n1C)C(=O)O`, for which the GI50 in [1], in [2], in [3], in assay [4], in assay [5] and in [6] was > 10 µM (inactive) in each case. Further, the GI50 in assay [7], in assay [8], in [9], in assay [10], in assay [20] and in [11] was > 10 µM (inactive) throughout. Moreover, the GI50 in assay [12], in assay [13], in assay [14], in [15], in [16] and in assay [17] was > 10 µM (inactive) each time. In [18], the GI50 is > 10 µM (inactive).
